Measured values as given in ChEMBL document CHEMBL3872259, “Synthesis, characterization, and in vitro SAR evaluation of N,N'-bis(arylmethyl)-C2-alkyl substituted imidazolium salts” (Bioorg Med Chem Lett, 2017).

Experiments:
[1] = Antiproliferative activity against human HOP62 cells assessed as cell growth at 10 uM measured after 48 hrs by sulforhodamine B assay relative to control; assay type: functional; details: HOP-62, 48 h, read-out: Activity
[2] = Antiproliferative activity against human EKVX cells assessed as cell growth at 10 uM measured after 48 hrs by sulforhodamine B assay relative to control; assay type: functional; details: read-out: Activity
[3] = Antiproliferative activity against human A549/ATCC cells assessed as cell growth at 10 uM measured after 48 hrs by sulforhodamine B assay relative to control; assay type: functional; details: A549, 48 h, read-out: Activity
[4] = Antiproliferative activity against human NCI-H460 cells assessed as reduction in cell viability measured after 72 hrs by MTT assay; assay type: functional, cell-based; details: NCI-H460, 72 h; for CC50: read-out: LC50 (the source's name)
[5] = Antiproliferative activity against human NCI-H1975 cells assessed as reduction in cell viability measured after 72 hrs by MTT assay; assay type: functional, cell-based; details: NCI-H1975, 72 h
[6] = Antiproliferative activity against human HCC827 cells assessed as reduction in cell viability measured after 72 hrs by MTT assay; assay type: functional, cell-based; details: HCC827, 72 h
[7] = Antiproliferative activity against human A549 cells assessed as reduction in cell viability measured after 72 hrs by MTT assay; assay type: functional, cell-based; details: A549, 72 h
[8] = Aqueous solubility of the compound; assay type: physicochemical; details: buffer
[9] = Antiproliferative activity against human HOP92 cells assessed as cell growth at 10 uM measured after 48 hrs by sulforhodamine B assay relative to control; assay type: functional; details: HOP-92, 48 h, read-out: Activity
[10] = Antiproliferative activity against human NCI-H226 cells assessed as cell growth at 10 uM measured after 48 hrs by sulforhodamine B assay relative to control; assay type: functional; details: NCI-H226, 48 h, read-out: Activity
[11] = Antiproliferative activity against human NCI-H23 cells assessed as cell growth at 10 uM measured after 48 hrs by sulforhodamine B assay relative to control; assay type: functional; details: NCI-H23, 48 h, read-out: Activity
[12] = Antiproliferative activity against human NCI-H322M cells assessed as cell growth at 10 uM measured after 48 hrs by sulforhodamine B assay relative to control; assay type: functional; details: read-out: Activity
[13] = Antiproliferative activity against human NCI-H460 cells assessed as cell growth at 10 uM measured after 48 hrs by sulforhodamine B assay relative to control; assay type: functional; details: NCI-H460, 48 h, read-out: Activity
[14] = Antiproliferative activity against human NCI-H522 cells assessed as cell growth at 10 uM measured after 48 hrs by sulforhodamine B assay relative to control; assay type: functional; details: NCI-H522, 48 h, read-out: Activity
[15] = Growth inhibition of human EKVX cells measured after 48 hrs by sulforhodamine B assay; assay type: functional; details: for CC50: read-out: LC50 (the source's name)
[16] = Growth inhibition of human HOP62 cells measured after 48 hrs by sulforhodamine B assay; assay type: functional; details: HOP-62, 48 h; for CC50: read-out: LC50 (the source's name)
[17] = Growth inhibition of human HOP92 cells measured after 48 hrs by sulforhodamine B assay; assay type: functional; details: HOP-92, 48 h; for CC50: read-out: LC50 (the source's name)
[18] = Growth inhibition of human NCI-H226 cells measured after 48 hrs by sulforhodamine B assay; assay type: functional; details: NCI-H226, 48 h; for CC50: read-out: LC50 (the source's name)
[19] = Growth inhibition of human NCI-H23 cells measured after 48 hrs by sulforhodamine B assay; assay type: functional; details: NCI-H23, 48 h; for CC50: read-out: LC50 (the source's name)
[20] = Growth inhibition of human NCI-H322M cells measured after 48 hrs by sulforhodamine B assay; assay type: functional; details: for CC50: read-out: LC50 (the source's name)
[21] = Growth inhibition of human NCI-H522 cells measured after 48 hrs by sulforhodamine B assay; assay type: functional; details: NCI-H522, 48 h

Work on `CCCCc1n(Cc2ccc3ccccc3n2)cc[n+]1Cc1ccc2ccccc2n1.[Cl-]` yielded a growth at 10 µM [1] of 25.2%, a growth at 10 µM [2] of 50.9% and a growth at 10 µM [3] of 44.8%. The GI50 [4] was 2.17 µM, the IC50 [4] was 5 µM and the TGI [4] was 11.6 µM. The CC50 [4] was 38.5 µM, the IC50 [5] was less than 1 µM and the IC50 [6] was 7 µM. It also gave a GI50 [7] of 4.76 µM, an IC50 [7] of 7 µM and an LC50 [7] of 47.6 µM. For the same compound, the TGI [7] was 18.5 µM, the solubility [8] was greater than 80 mM and the growth at 10 µM [9] was 4.31%. The growth at 10 µM [10] was 26.7%, the growth at 10 µM [11] was 4.77% and the growth at 10 µM [12] was 41.4%. It also gave a growth at 10 µM [13] of 16.5%, a growth at 10 µM [14] of 10% and a GI50 [15] of 4 µM. The TGI [15] was 22 µM, the CC50 [15] was 72.4 µM and the GI50 [16] was 2.8 µM. For the same compound, the TGI [16] was 12 µM, the CC50 [16] was 39.8 µM and the GI50 [17] was 0.339 µM. For the same compound, the TGI [17] was 3.36 µM, the CC50 [17] was 20.1 µM and the GI50 [18] was 2.37 µM. It also gave a TGI [18] of 13.6 µM, a CC50 [18] of 60.3 µM and a GI50 [19] of 0.48 µM. It also gave a TGI [19] of 7.27 µM, a CC50 [19] of 43.6 µM and a GI50 [20] of 3.57 µM. For the same compound, the TGI [20] was 16.3 µM, the CC50 [20] was 42 µM and the GI50 [21] was 0.435 µM. The LC50 (50% lethal concentration) [21] was 32 µM and the TGI [21] was 4.19 µM.
Work on `CCc1n(Cc2ccc3ccccc3n2)cc[n+]1Cc1ccc2ccccc2n1.[Cl-]` yielded a growth at 10 µM [1] of 40.9%, a growth at 10 µM [2] of 31.9% and a growth at 10 µM [3] of 57.4%. It also gave a GI50 [4] of 0.511 µM, an IC50 [4] of 6 µM and a TGI [4] of 11.9 µM. The CC50 [4] was 45.7 µM, the IC50 [5] was less than 1 µM and the IC50 [6] was 9 µM. It also gave a GI50 [7] of 5.27 µM, an IC50 [7] of 11 µM and an LC50 [7] greater than 100 µM. The TGI [7] was greater than 100 µM, the solubility [8] was greater than 80 mM and the growth at 10 µM [9] was -11.8%. It also gave a growth at 10 µM [10] of 48.4%, a growth at 10 µM [11] of 16% and a growth at 10 µM [12] of 73.1%. It also gave a growth at 10 µM [13] of 34.8%, a growth at 10 µM [14] of -3.51% and a GI50 [15] of 0.343 µM. For the same compound, the TGI [15] was 41.5 µM, the CC50 [15] was greater than 100 µM and the GI50 [16] was 4.66 µM. It also gave a TGI [16] of 31.5 µM, a CC50 [16] greater than 100 µM and a GI50 [17] of 0.0183 µM. For the same compound, the TGI [17] was 0.521 µM, the CC50 [17] was 19.7 µM and the GI50 [18] was 2.56 µM. The TGI [18] was 30.8 µM, the CC50 [18] was greater than 100 µM and the GI50 [19] was 0.275 µM. For the same compound, the TGI [19] was 8.66 µM, the CC50 [19] was greater than 100 µM and the GI50 [20] was 6.33 µM. The TGI [20] was 41.9 µM, the CC50 [20] was greater than 100 µM and the GI50 [21] was 0.0837 µM. The LC50 (50% lethal concentration) [21] was 37.9 µM and the TGI [21] was 1.49 µM.
In the case of `CCCc1n(Cc2ccc3ccccc3n2)cc[n+]1Cc1ccc2ccccc2n1.[Cl-]`, the growth at 10 µM [1] is reported as 51.7%, the growth at 10 µM [2] is reported as 58.1% and the growth at 10 µM [3] is reported as 62.8%. The GI50 [4] was 2.56 µM, the IC50 [4] was 5 µM and the TGI [4] was 11.7 µM. It also gave a CC50 [4] of 39.8 µM, an IC50 [5] of 1 µM and an IC50 [6] of 7 µM. For the same compound, the GI50 [7] was 6.78 µM, the IC50 [7] was 10 µM and the LC50 [7] was greater than 100 µM. It also gave a TGI [7] greater than 100 µM, a solubility [8] greater than 80 mM and a growth at 10 µM [9] of 16%. It also gave a growth at 10 µM [10] of 38%, a growth at 10 µM [11] of 13% and a growth at 10 µM [12] of 72.1%. For the same compound, the growth at 10 µM [13] was 34.2%, the growth at 10 µM [14] was 22.8% and the GI50 [15] was 12.5 µM. For the same compound, the TGI [15] was greater than 100 µM, the CC50 [15] was greater than 100 µM and the GI50 [16] was 4.28 µM. It also gave a TGI [16] of 19.4 µM, a CC50 [16] of 62.6 µM and a GI50 [17] of 0.399 µM. It also gave a TGI [17] of 3.23 µM, a CC50 [17] of 23.2 µM and a GI50 [18] of 3.4 µM. For the same compound, the TGI [18] was 34.8 µM, the CC50 [18] was greater than 100 µM and the GI50 [19] was 0.865 µM. The TGI [19] was 15 µM, the CC50 [19] was greater than 100 µM and the GI50 [20] was 4.68 µM. For the same compound, the TGI [20] was 41.9 µM, the CC50 [20] was greater than 100 µM and the GI50 [21] was 0.601 µM. The LC50 (50% lethal concentration) [21] was 27.1 µM and the TGI [21] was 4.3 µM.
